Measured values taken from patent US8063242B2, “2-aryl-propionic acids and pharmaceutical compositions containing them” (Dompe PHA.R.MA S.p.A., priority 2001, dated 2011).

Assays:
[1] = target: T1, CXCR1 (Homo sapiens, UniProt P25024); test: IL-8 induced PMN chemotaxis test; assay type: cell-based; details: for inhibition at 1 µM: compound 10^−6 M, IL-8 induced PMN chemotaxis, IL-8 10^−9 M, read-out: % inhibition (C = 10^−6 M); for inhibition at 0.01 µM: read-out: % of inhibition IL-8 (c = 10^−8 M)
T1 construct: endogenous in cells; host or cells: human polymorphonucleate leukocytes (PMNs) from blood of healthy volunteers
T1 sequence (P25024 1-350): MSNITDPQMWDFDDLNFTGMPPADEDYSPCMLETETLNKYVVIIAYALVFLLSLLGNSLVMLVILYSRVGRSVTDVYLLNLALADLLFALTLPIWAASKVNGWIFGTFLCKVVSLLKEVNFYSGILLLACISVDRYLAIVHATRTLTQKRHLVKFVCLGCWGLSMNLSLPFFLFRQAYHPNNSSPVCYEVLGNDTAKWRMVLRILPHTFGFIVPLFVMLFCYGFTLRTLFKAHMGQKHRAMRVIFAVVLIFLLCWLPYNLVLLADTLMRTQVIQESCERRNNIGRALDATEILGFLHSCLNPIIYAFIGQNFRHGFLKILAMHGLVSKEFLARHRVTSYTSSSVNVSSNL
Protocol: (§1) The compounds of the invention of formula (I) were evaluated in vitro for their ability to inhibit chemotaxis of polymorphonucleate leukocytes (hereinafter referred to as PMNs) and monocytes induced by the fractions of IL-8 and GRO-α. For this purpose, in order to isolate the PMNs from heparinized human blood, taken from healthy adult volunteers, mononucleates were removed by means of sedimentation on dextran (according to the procedure disclosed by W. J. Ming et al., J. Immunol., 138, 1469, 1987) and red blood cells by a hypotonic solution. The cell vitality was calculated by exclusion with Trypan blue, whilst the ratio of the circulating polymorphonucleates was estimated on the cytocentrifugate after staining with Diff Quick.
Human recombinant IL-8 (Pepro Tech) was used as stimulating agents in the chemotaxis experiments, giving practically identical results: the lyophilized protein was dissolved in a volume of HBSS containing 0.2% bovin serum albumin (BSA) so thus to […]
(§2) During the chemotaxis assay (according to W. Falket et al., J. Immunol. Methods, 33, 239, 1980) PVP-free filters with a porosity of 5 μm and microchambers suitable for replication were used.
(§3) The compounds of the invention in formula (I) were evaluated at a concentration ranging between 10^−6 and 10^−10 M; for this purpose they were added, at the same concentration, both to the lower pores and the upper pores of the microchamber. Evaluation of the ability of the compounds of the invention of formula (I) to inhibit IL-8-induced chemotaxis of human monocytes was carried out according to the method disclosed by Van Damme J. et al. (Eur. J. Immunol., 19, 2367, 1989).

[2] = target: T2, CXCR2 (Homo sapiens, UniProt P25025); test: GRO-α induced PMN chemotaxis test; assay type: cell-based; details: compound 10^−8 M, PMN chemotaxis induced by GRO-α; for inhibition at 0.01 µM: read-out: % of inhibition GRO-α (c = 10^−8 M)
T2 construct: endogenous in cells; host or cells: human polymorphonucleate leukocytes (PMNs) from blood of healthy volunteers
T2 sequence (P25025 1-360): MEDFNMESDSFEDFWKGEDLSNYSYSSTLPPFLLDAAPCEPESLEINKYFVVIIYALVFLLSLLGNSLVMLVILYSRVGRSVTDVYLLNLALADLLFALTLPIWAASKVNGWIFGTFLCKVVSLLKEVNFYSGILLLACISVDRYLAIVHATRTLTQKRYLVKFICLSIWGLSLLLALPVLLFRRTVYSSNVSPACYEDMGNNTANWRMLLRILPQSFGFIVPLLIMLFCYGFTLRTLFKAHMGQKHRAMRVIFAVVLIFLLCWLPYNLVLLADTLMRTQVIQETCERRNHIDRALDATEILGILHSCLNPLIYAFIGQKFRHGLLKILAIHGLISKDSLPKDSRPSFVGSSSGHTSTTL
Protocol: as §1, §2, §3
In the table below, biological activities of compounds showing high potency in the inhibition of PMN chemotaxis induced as by IL-8 as by the selective CXCR2 agonist GRO-α are reported.

[3] = compound 10^−8 M, PMN chemotaxis induced by IL-8

Row | SMILES | inhibition at 1 µM [1] | inhibition at 0.01 µM [2] | inhibition at 0.01 µM [1, 3] | other results
1 | CCC(CC)c1cccc(C(C)C(=O)O)c1 (racemic) [Example 6, (R,S) 2-[3′-(alpha-ethyl-propyl)phenyl]propionic acid] | 58 ± 2% |  |  | 
2 | CC(C(=O)O)c1ccccc1Nc1c(Cl)cccc1Cl (racemic) [Example 18, (R,S) 2-[2′-(2″,6″-dichlorophenyl)aminophenylpropionic acid] | 52 ± 3% |  |  | 
3 | CC(C(=O)O)c1ccccc1Oc1c(Cl)cccc1Cl (racemic) [Example 25, (R,S) 2-[2′-(2″,6″-dichloro)phenoxy]phenylpropionic acid] | 41 ± 9% |  |  | 
4 | CC(C)c1cccc(C(C)C(=O)O)c1 (stereo not drawn) [Example 5, 2-[(3′-isopropyl)phenyl]propionic acid] | 51 ± 12% |  |  | 
5 | CC(C)c1cccc([C@@H](C)C(=O)O)c1 [Example 10, (R)-2-[(3′-isopropyl)phenyl]-propionic acid] | 43 ± 18% |  |  | 
6 | CC(C)c1cccc([C@H](C)C(=O)O)c1 [Example 14, (S)-2-[(3′-isopropyl)phenyl]-propionic acid] | 50 ± 9% |  |  | 
7 | CC(O)c1cccc(C(C)C(=O)O)c1 [Example 16, (R,S), (R,S) 2-[3′-(alpha-hydroxy-ethyl)phenyl]propionic acid] | 57 ± 6% |  |  | 
8 | C[C@@H](C(=O)O)c1ccccc1Nc1c(Cl)cccc1Cl [Example 19] | 46 ± 14% |  |  | 
9 | C[C@H](C(=O)O)c1ccccc1Nc1c(Cl)cccc1Cl [Example 20] | 50 ± 7% |  |  | 
10 | C[C@@H](C(=O)O)c1ccc(NS(=O)(=O)c2ccccc2)cc1 [Example 27] |  |  |  | % of inhibition GRO-α (c = 10^−8 M) [2]: 33 ± 11+ %; % of inhibition IL-8 (c = 10^−8 M) [1, 3]: 49 ± 11%
11 | C[C@@H](C(=O)O)c1ccc(NS(C)(=O)=O)cc1 [Example 28, (R) 2-(4′-methanesulfonylamino)phenylpropionic acid] |  | 32 ± 5% | 25 ± 7% | 
12 | CC(C)S(=O)(=O)Nc1ccc([C@@H](C)C(=O)O)cc1 [Example 29, (R) 2-[4′-(2″-propane)sulfonylamino]phenylpropionic acid] |  | 44 ± 12% | 54 ± 14% | 
13 | C[C@@H](C(=O)O)c1ccc(NS(=O)(=O)C(F)(F)F)cc1 [Example 30, (R) 2-(4′-trifluoromethanesulfonylamino)phenylpropionic acid] |  | 40 ± 14% | 8 ± 10% | 

The next lines start with results.

Row | inhibition at 1 µM [1] | inhibition at 0.01 µM [2] | inhibition at 0.01 µM [1, 3] | SMILES | other results
14 | 54 ± 4% |  |  | CC(C(=O)O)c1cccc(C(C)c2ccccc2)c1 (stereo not drawn) [Example 7] | 
15 |  | 24 ± 8% | 60 ± 10% | C[C@@H](C(=O)O)c1ccc(NS(=O)(=O)Cc2ccccc2)cc1 [Example 31, (R) 2-(4′-benzylsulfonylamino)phenylpropionic acid] | 
16 |  | 66 ± 10% | -2 ± 10% | C[C@@H](C(=O)O)c1ccc(NS(=O)(=O)c2ccccc2Cl)cc1 [Example 32, (R) 2-[4′-(2″-chloro)benzenesulfonylamino]phenylpropionic acid] | 
17 |  | 80 ± 10% | 44 ± 14% | CCc1ccccc1S(=O)(=O)Nc1ccc([C@@H](C)C(=O)O)cc1 [Example 33, (R) 2-[4′-(2″-ethyl)benzenesulfonylamino]phenylpropionic acid] | 
18 |  | 2 ± 5% | 55 ± 10% | C[C@@H](C(=O)O)c1ccc(NS(N)(=O)=O)cc1 [Example 34, (R) 2-(4′-aminosulfonylamino)phenylpropionic acid] | 
19 |  | 25 ± 11% | 59 ± 11% | C[C@@H](C(=O)O)c1ccc(OS(=O)(=O)Cc2ccccc2)cc1 [Example 36, (R) 2-(4′-benzylsulfonyloxy)phenylpropionic acid] | 
20 |  | 59 ± 10% | 62 ± 7% | C[C@@H](C(=O)O)c1ccc(OS(=O)(=O)C(F)(F)F)cc1 [Example 37, (R) 2-(4′-trifluoromethanesulfonyloxy)phenylpropionic acid] | 
21 |  | 46 ± 6% | 49 ± 8% | CC(C)S(=O)(=O)Oc1ccc([C@@H](C)C(=O)O)cc1 [Example 38, (R) 2-[4′-(2″-propane)sulfonyloxy]phenylpropionic acid] | 
22 |  | 65 ± 10% | 25 ± 7% | C[C@@H](C(=O)O)c1ccc(OS(=O)(=O)c2ccccc2Cl)cc1 [Example 39, (R) 2-[4′-(2″-chloro)benzenesulfonyloxy]phenylpropionic acid] | 
23 |  | 70 ± 10% | 45 ± 13% | CCc1ccccc1S(=O)(=O)Oc1ccc([C@@H](C)C(=O)O)cc1 [Example 40, (R) 2-[4′-(2″-ethyl)benzenesulfonyloxy]phenylpropionic acid] | 
24 |  | 5 ± 7% | 65 ± 10% | C[C@@H](C(=O)O)c1ccc(OS(N)(=O)=O)cc1 [Example 41, (R) 2-(4′-aminosulfonyloxy)phenylpropionic acid] | 
25 |  | 52 ± 5% | 60 ± 7% | C[C@@H](C(=O)O)c1ccc(CS(=O)(=O)c2ccccc2)cc1 [Example 42, (R) 2-(4′-benzenesulfonylmethyl)phenylpropionic acid] | 
26 |  | 45 ± 7% | 48 ± 7% | C[C@@H](C(=O)O)c1ccc(CS(=O)(=O)C(F)(F)F)cc1 [Example 43, (R) 2-(4′-trifluoromethanesulfonylmethyl)phenylpropionic acid] | 
